Experimental data: patent US20220016023A1, “METHOD FOR TREATING MYOPIA AND APPLICATION IN PREPARATION OF MEDICAMENT” (WENZHOU MEDICAL UNIVERSITY, priority 2018, published 2022)
Where two headings read alike, the source gives them in different places.

System: form deprivation myopia
Conditions: for difference of binocular refractions / difference of binocular axial lengths: 2 weeks after form deprivation, p<0.01; for difference of binocular axial lengths: vehicle 0.17±0.05

| SMILES | difference of binocular refractions (FDM+Pr (10 μM), FDM+Vehicle −5.98±2.22, FIG. 6A) [D] | difference of binocular axial lengths (FDM+Pr (10 μM), FIG. 6B) [mm] | difference of binocular refractions (FDM+NA (0.1 mg), FDM+Vehicle −5.43±1.69, FIG. 5A) [D] | difference of binocular axial lengths (FDM+NA (0.1 mg), FIG. 5B) [mm] | choroidal blood flow, fellow eye vs. test eye (after periocular injection of 0.1 mg nicotinic acid, 2 weeks form deprivation, FIG. 5C) |
| --- | --- | --- | --- | --- | --- |
| COc1cc2nc(N3CCN(C(=O)c4ccco4)CC3)nc(N)c2cc1OC [prazosin] | −3.26±2.22 | 0.10±0.06 | – | – | – |
| O=C(O)c1cccnc1 [nicotinic acid] | – | – | −3.43±1.80 | 0.10±0.06 | no statistical difference between two eyes |
